In brackets after ≈: the same amount, converted by molar mass.
How the values were obtained:
Assay in all cases: In vitro antibacterial evaluation: minimum inhibitory concentration (MIC), broth dilution method
Type in all cases: cell-based
Details in all cases: broth dilution, 18 hours at 35° C.
Enterococcus sp. = test system: Enterococcus sp.
In short: (§1)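 NCCLS M7-A2 broth dilution with Mueller-Hinton II, testing 64-0.06 μg/mL antibiotic against 5×10^5 CFU/mL inocula. Test strains include recent methicillin-, penicillin- or vancomycin-resistant clinical isolates. MIC is the lowest concentration preventing growth.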

Staphylococcus sp. = test system: Staphylococcus sp.
In short: as §1

Streptococcus sp. = test system: Streptococcus sp.
In short: as §1

Escherichia coli = test system: Escherichia coli

CC(c1ccccc1)C1NC(=O)CNC(=O)C(CO)NC(=O)C(C(O)C2CNC(=N)N2C2OC(CO)C(O)C(O)C2O)NC(=O)C(C(O)C2CNC(=N)N2)NC(=O)C(Cc2ccc3oc(SCc4ccc5ccccc5c4)nc3c2)NC1=O (stereo not drawn) [Example 46, Cyclo[3-[2-[(naphthylmethyl)thio]-1,3-benzoxazol-5-yl]alanyl-3-(2-iminoimidazolidin-4-yl)-seryl-3-(3-hexopyranosyl-2-iminoimidazolidin-4-yl)serylserylglycyl-β-methylphenylalanyl]]
MIC Enterococcus avium (GC 4558) (Enterococcus sp.; Enterococcus avium (GC 4558)): 4 µg/mL (≈ 3.42 µM) | MIC Enterococcus faecalis (ATCC 29212) (Enterococcus sp.; Enterococcus faecalis (ATCC 29212)): 8 µg/mL (≈ 6.85 µM) | MIC Enterococcus faecalis (GC 2242) (Enterococcus sp.; Enterococcus faecalis (GC 2242)): 8 µg/mL (≈ 6.85 µM) | MIC Enterococcus faecalis (GC 2691) (Enterococcus sp.; Enterococcus faecalis (GC 2691)): 16 µg/mL (≈ 13.7 µM) | MIC Enterococcus faecalis (GC 3059) (Enterococcus sp.; Enterococcus faecalis (GC 3059)): 32 µg/mL (≈ 27.4 µM) | MIC Enterococcus faecalis (GC 4552) (Enterococcus sp.; Enterococcus faecalis (GC 4552)): 8 µg/mL (≈ 6.85 µM) | MIC Enterococcus faecalis (GC 4553) (Enterococcus sp.; Enterococcus faecalis (GC 4553)): 4 µg/mL (≈ 3.42 µM) | MIC Enterococcus faecalis (GC 4554) (Enterococcus sp.; Enterococcus faecalis (GC 4554)): 16 µg/mL (≈ 13.7 µM) | MIC Enterococcus faecalis (GC 6189) (Enterococcus sp.; Enterococcus faecalis (GC 6189)): 16 µg/mL (≈ 13.7 µM) | MIC Enterococcus faecium (GC 2243) (Enterococcus sp.; Enterococcus faecium (GC 2243)): 4 µg/mL (≈ 3.42 µM) | MIC Enterococcus faecium (GC 4556) (Enterococcus sp.; Enterococcus faecium (GC 4556)): 16 µg/mL (≈ 13.7 µM) | MIC Enterococcus faecium (GC 4557) (Enterococcus sp.; Enterococcus faecium (GC 4557)): 8 µg/mL (≈ 6.85 µM) | MIC Enterococcus avium (GC 4558) (Enterococcus sp.): 4 µg/mL (≈ 3.42 µM) | MIC Enterococcus faecalis (ATCC 29212) (Enterococcus sp.): 8 µg/mL (≈ 6.85 µM) | MIC Enterococcus faecalis (GC 2242) (Enterococcus sp.): 8 µg/mL (≈ 6.85 µM) | MIC Enterococcus faecalis (GC 2691) (Enterococcus sp.): 16 µg/mL (≈ 13.7 µM) | MIC Enterococcus faecalis (GC 3059) (Enterococcus sp.): 32 µg/mL (≈ 27.4 µM) | MIC Enterococcus faecalis (GC 4552) (Enterococcus sp.): 8 µg/mL (≈ 6.85 µM) | MIC Enterococcus faecalis (GC 4553) (Enterococcus sp.): 4 µg/mL (≈ 3.42 µM) | MIC Enterococcus faecalis (GC 4554) (Enterococcus sp.): 16 µg/mL (≈ 13.7 µM) | MIC Enterococcus faecalis (GC 6189) (Enterococcus sp.): 16 µg/mL (≈ 13.7 µM) | MIC Enterococcus faecium (GC 2243) (Enterococcus sp.): 4 µg/mL (≈ 3.42 µM) | MIC Enterococcus faecium (GC 4556) (Enterococcus sp.): 16 µg/mL (≈ 13.7 µM) | MIC Enterococcus faecium (GC 4557) (Enterococcus sp.): 8 µg/mL (≈ 6.85 µM) | MIC Coagulase Negative Staphylococcus (GC 4547) (Staphylococcus sp.): 4 µg/mL (≈ 3.42 µM) | MIC Coagulase Negative Staphylococcus (GC 4548) (Staphylococcus sp.): 8 µg/mL (≈ 6.85 µM) | MIC Coagulase Negative Staphylococcus (GC 4549) (Staphylococcus sp.): 2 µg/mL (≈ 1.71 µM) | MIC Coagulase Negative Staphylococcus (GC 4551) (Staphylococcus sp.): 4 µg/mL (≈ 3.42 µM) | MIC Staphylococcus aureus SMITH (GC 4543) (Staphylococcus sp.): 4 µg/mL (≈ 3.42 µM) | MIC Staphylococcus haemolyticus (GC 4546) (Staphylococcus sp.): 8 µg/mL (≈ 6.85 µM) | MIC Staphylococcus aureus-SMITH (GC 4543) (Staphylococcus sp.; strain SMITH GC 4543): 4 µg/mL (≈ 3.42 µM) | MIC Streptococcus agalactiae (GC 4564) (Streptococcus sp.; Streptococcus agalactiae (GC 4564)): 8 µg/mL (≈ 6.85 µM) | MIC Streptococcus pneumoniae (ATCC 6301) (Streptococcus sp.; Streptococcus pneumoniae (ATCC 6301)): 8 µg/mL (≈ 6.85 µM) | MIC Streptococcus pneumoniae (GC 1894) (Streptococcus sp.; Streptococcus pneumoniae (GC 1894)): 8 µg/mL (≈ 6.85 µM) | MIC Streptococcus pneumoniae (GC 4565) (Streptococcus sp.; Streptococcus pneumoniae (GC 4565)): 8 µg/mL (≈ 6.85 µM) | MIC Streptococcus pyogenes (GC 4563) (Streptococcus sp.; Streptococcus pyogenes (GC 4563)): 1 µg/mL (≈ 0.856 µM) | MIC Streptococcus agalactiae (GC 4564) (Streptococcus sp.): 8 µg/mL (≈ 6.85 µM) | MIC Streptococcus pneumoniae (ATCC 6301) (Streptococcus sp.): 8 µg/mL (≈ 6.85 µM) | MIC Streptococcus pneumoniae (GC 1894) (Streptococcus sp.): 8 µg/mL (≈ 6.85 µM) | MIC Streptococcus pneumoniae (GC 4565) (Streptococcus sp.): 8 µg/mL (≈ 6.85 µM) | MIC Streptococcus pyogenes (GC 4563) (Streptococcus sp.): 1 µg/mL (≈ 0.856 µM) | MIC Escherichia coli (ATCC 25922) (Escherichia coli): 64 µg/mL (≈ 54.8 µM) | MIC Escherichia coli (GC 4559) (Escherichia coli): 64 µg/mL (≈ 54.8 µM) | MIC Escherichia coli (GC 4560) (Escherichia coli): 16 µg/mL (≈ 13.7 µM)

Reference: patent US8247211B2, “Glycopeptide antibiotics” (American Cyanamid Company, priority 2001, dated 2012)
